According to PMC8647151, “PLK1‐dependent phosphorylation restrains EBNA2 activity and lymphomagenesis in EBV‐infected mice” (EMBO Reports, 2021):
Where “and” joins values, the source holds several entries; their conditions need not be identical. Identical values can stand only once. Where a SMILES comes first, the peptide text is derived from it. [ ]: non-standard residue; d: D form. pS = N[C@@H](COP(=O)(O)O)C(=O)O

How the values were obtained:
PLK1 = test: Kinase assay on EBNA2/PLK1 co-precipitates with endogenous PLK1; format: biochemical; details: Volasertib 40 nM, [γ-32P] ATP
Protocol: Monoclonal antibodies specific for His6 (2F12), EBNA2 (R3), glutathione S transferase (6G9), HA‐tag (3F10), BSA (3C5), and LMP1 (1G6) were provided by the antibody facility of the Helmholtz Center Munich. Commercial providers were as follows: GAPDH (Mab374; Merck Millipore), Flag (M2; Sigma‐Aldrich), PLK1 (ab17056; Abcam), GFP (7.1 and 13.1; Roche), and a p300‐specific serum (C20; Santa Cruz). For immunoprecipitations and Western blotting, the equivalent of 1 × 10^7 cells was lysed in 500 µl of lysis buffer (1% NP‐40, 10 mM Tris–HCl pH 7.4, 3% glycerol, 150 mM NaCl, 1 mM EDTA) supplemented with cOmplete protease inhibitor and PhoStop phosphatase inhibitor (Roche) incubated for 30 min at 4°C with constant rolling and for 30 min on ice. The lysate was cleared by centrifugation (16,000 g, 15 min). 1 µg of purified antibodies or 100 µl of hybridoma supernatants was coupled to Protein A or G beads and added to the cleared lysates, incubated for 2 h at 4°C, and washed with lysis buffer, and the protein was eluted with Laemmeli buffer. For GST‐pulldown, antibody‐coated beads were replaced by GST fusion protein‐coated beads. 20 µg protein of total cell lysates or 5 × 10^6 cell equivalents of one immunoprecipitation were loaded per lane. Signals on Western blots were detected by enhanced chemiluminescence (GE Healthcare) and exposed to films or Fusion FX (Vilber Lourmat). […]

[1] = biological target: GST-EBNA2 446-474 double-mutant S457A/T465V (Epstein-Barr virus (B95-8)) (UniProt P12978); test: pull-down; GST-EBNA2 446-474 (wt or phosphorylation mutants) on beads as bait; cellular proteins from DG75 cells; Western blot with GST- and p300-specific antibodies, signals quantified and normalized to wt
[2] = biological target: PLK1 polo-box domain (PBD), PLK1 residue 345-603 (UniProt P53350); test: ITC; ITC200; 100 µM PBD in the cell titrated with 1 mM peptide, 25 injections of 1.5 µl, 25°C, triplicates
[3] = biological target: T1, PLK1 PBD (PLK1 residue 345‐603) (Homo sapiens, UniProt P53350); test: Isothermal titration calorimetry of EBNA2 heptapeptides with PLK1 PBD; format: binding; details: ITC200, 100 µM PBD in the cell titrated with 1 mM peptide, 25°C, triplicates
T1 construct: His6 (N); made in house; host or cells: E. coli Rosetta (DE3)
Protocol: PLK1 frequently binds to phosphorylated substrates that are primed by cellular kinases like Cyclin B/CDK1. These substrates share a consensus motif [Pro/Phe]‐[Φ/Pro]‐[Φ]‐[Thr/Gln/His/Met]‐Ser‐[pThr/pSer]‐[Pro/X] (Φ represents hydrophobic and X represents any residue) specific for binding to the Polo‐box binding domain (PBD) of PLK1 (Elia et al, [2003a]). […] Mutants involving the respective residues were tested for PLK1 binding by transfection and co‐precipitation. […] To specify the contribution of EBNA2 residue S379 phosphorylation, a heptapeptide (PNTSSPS) and phospho‐heptapeptide (PNTSpSPS) were tested for PBD (PLK1 residue 345‐603) binding by isothermal titration calorimetry (ITC). […] GST‐EBNA2 342–422 expressed and purified from bacterial extracts did hardly pulldown any PLK1 from cellular extracts. […] Also, as shown by transfection, EBNA2 S379A binding to PLK1 was severely impaired (Fig 2H). We conclude that EBNA2 residue S379 is a PLK1 docking site primed by Cyclin B/CDK1 phosphorylation.
Experiments were performed on a ITC200 instrument in triplicates and analyzed with the Malvern software. 100 µM PBD was provided in the cell and titrated with 1 mM concentration of wild type (PNTSSPS) or phosphopeptide (PNTSpSPS) with 25 times 1.5 µl injections at 25°C.

[4] = biological target: polo-like kinase 1 (PLK1) (UniProt P53350); test: GST pull-down from cell extract; details: reference: wild type, Cyclin B/CDK1 treated; sites S379

## CC[C@@H]1C(=O)N(C)c2cnc(Nc3ccc(C(=O)N[C@H]4CC[C@H](N5CCN(CC6CC6)CC5)CC4)cc3OC)nc2N1C(C)C [Volasertib]
PLK1; EBNA2 mutants expressed in DG75 B cells, endogenous PLK1 trapped in precipitates
  phosphorylation of EBNA2 wt and candidate phosphorylation mutants in immunoprecipitates: prevented phosphorylation of all EBNA2 proteins
PLK1; co-precipitates from DG75 Dox HA-EBNA2 cells, 30 min, 37°C
  EBNA2 phosphorylation in co-precipitates of EBNA2 and endogenous PLK1: prevented

## histone acetylase and co-activator p300, endogenous, Q09472 1-2414
[1]
  fold p300 binding relative to wt: 8 fold and 9 fold

## EBNA2 phospho-heptapeptide PNTSpSPS
[2]
  stoichiometry N: 1

## PNTSSPS [unmodified heptapeptide of EBNA2 covering residue S379]
[3]
  PBD binding by ITC: no interaction was detected

## EBNA2 (EBV nuclear antigen 2) 342-422 (from UniProt P12978) S379A, Cyclin B/CDK1 treated
[4]
  binding against the reference: lost

## C[C@@H](O)[C@H](NC(=O)[C@H](CC(N)=O)NC(=O)[C@@H]1CCCN1)C(=O)N[C@@H](CO)C(=O)N[C@@H](COP(=O)(O)O)C(=O)N1CCC[C@H]1C(=O)N[C@@H](CO)C(=O)O [PNTSpSPS] (H-PNTS[pS]PS-OH)
[3]; 25 x 1.5 µl injections, read-out: dissociation constant KD
  Kd: 8.19 µM
